# Patent publication US11246873B2, “Directed differentiation of oligodendrocyte precursor cells to a myelinating cell fate” (The Scripps Research Institute, priority 2011, dated 2022)
# Entries after “also recorded” stand apart in the source; their conditions may differ.
# What was measured:
# PLP induced EAE mice = test system: PLP induced EAE mice
# Protocol: (A-E) SJL mice were immunized with proteolipid peptide (PLP) and pertussis toxin and monitored daily with scoring on the standard clinical EAE scale (0-5). Compounds were administered daily for the duration of the study in saline at 10 mg/kg via intra-peritoneal injection (0.1 ml), starting on the day of the appearance of clinical EAE symptoms (day 10). […] Mean clinical EAE score and standard error of mean (SEM) are shown for each study group.
# FIG. 25. […] EAE was induced in mice using PLP and pertussis toxin. […] Prophylactic dosing is defined as administration of compound commenced on the day of PLP injection. Error bars indicate standard deviation of the mean within each group of 8 mice.
# (A-F) EAE was induced in mice using PLP and pertussis toxin. […] Error bars indicate standard deviation of the mean within each group of 8 mice.
# (A-F) EAE was induced in mice by injecting PLP in complete Freund's adjuvant (CFA) and pertussis toxin, and the animals were scored daily for clinical severity of disease on a scale of 0-5. […] Error bars indicate standard deviation of the mean within each group of 8-10 mice.
# 10 week old SJL mice were immunized with PLP emulsion and pertusis toxin to induce EAE. […] Compounds were administered daily via intraperitoneal injection of 100 ul in sterile saline at 10 mg/kg alone or in combination with mycophenolate motefil in sterile saline at pH 5 at 20 mg/kg. Compound administration was initiated at disease onset (day 10) while mycophenolate motefil administration was initiated on Day 14. The mice were scored daily on a standard EAE scale of 0-5.
# This model is most commonly used to evaluate the potential efficacy of immunomodulatory agents, but can also be used to determine the effectiveness of promyelinating agents that function by enhancing OPC differentiation (M. Fernandez et al., Proc Natl Acad Sci U.S.A, 101, 16363 (2004); X. Lee et al., J Neurosci, 27, 220 (2007); reviewed in R. J. Franklin, C. Ffrench-Constant, Nat Rev Neurosci, 9, 839 (2008)). […] We next evaluated efficacy when the drug is dosed therapeutically, by starting daily injections at the first sign of disease onset.
# For the treatment of MS, an OPC differentiation inducing drug would most likely be introduced clinically as part of a combination therapy with an immunosuppressive drug. […] The former reduces T-cell proliferation and alters cytokine expression (A. Noronha, A. Toscas, M. A. Jensen, J Neuroimmunol, 46, 145 (1993); A. Noronha, A. Toscas, M. A. Jensen, Ann Neurol, 27, 207 (1990)), while the latter is an S1P agonist that regulates T-cell trafficking (V. Brinkmann et al., J Biol Chem, 277, 21453 (2002); V. Brinkmann et al., Nat Rev Drug Discov, 9, 883 (2010)).
# [1] = test system: total splenocytes stimulated with CD3; test: T-cell activation (CD69, CD25) and proliferation (CFSE) in vitro; type: cell-based, mouse; conditions: versus DMSO
# Source text: (A-F) Total splenocytes were isolated from mice and stimulated with CD3 and analyzed by flow cytometry for expression of T-cell activation markers CD69 and CD25 and T-cell proliferation using CFSE. (A) Unstimulated cells. (B) DMSO treated cells. […] The numbers represent percentage gated populations positive for the given marker.
# The primary immunological processes involved in MS and EAE are T-cell mediated and the primary treatment paradigms are based on immunomodulatory drugs (T. Kopadze et al., Arch Neurol, 63, 1572 (2006); J. M. Greer et al., J Immunol, 180, 6402 (2007), M. P. Pender and J. M. Greer, curr Allergy Asthma Rep, 7, 285 (2007)).
# [2] = test system: rat optic nerve derived OPCs; test: High content imaging assay of OPC differentiation (MBP immunostaining, OPERA); type: cell-based; conditions: for induction of OPC differentiation (MBP staining): OPCs in differentiation medium (2 ng/ml PDGF), 6 days
# Protocol: FIG. 1A-C. […] The calculated EC50 values were determined using appropriate Graphpad Prism 5.0 curve fitting software. […] OPCs were plated in 384 well plates at 1000 cells per well in OPC media containing basal PDGF-αα (2 ng/mL) and treated with serial dilutions of compounds. Following six days of compound treatment, cells were fixed and subjected to immunofluorescence analysis using anti-myelin basic protein (MBP) antibody. Image acquisition and quantification of MBP staining was performed using the OPERA imaging system.
# FIG. 11A-B. Screen to identify inducers of OPC differentiation. (A) OPCs were maintained as proliferating A2B5-positive cells under basal growth conditions (Neurobasal medium, B27 supplement without Vitamin A, non-essential amino acids, L-Glutamine, 30 ng/ml PDGF). OPCs were plated in basal differentiation media (Neurobasal medium, B27 supplement without Vitamin A, non-essential amino acids, L-Glutamine, 2 ng/ml PDGF), treated with DMSO (<0.1%) or thyroid hormone (1 uM), fixed after 6 days in culture, and stained using antibodies for CNP, O4, or MBP. […] (B) Screen strategy using A2B5 positive OPCs cultured under basal differentiation conditions and treated with compounds for 6 days to identify small molecules that induce the differentiation of OPCs to mature, MBP expressing oligodendrocytes.
# FIG. 12A-B. Primary hit confirmation. (A) Dose response assay used to confirm primary screening hits and determine potency (EC50). (EC50) is defined as the concentration that results in a half maximal increase in the percentage of total cells that express MBP as detected by immunostaining. […] Cells were fixed and immunostained using antibodies for MBP. Error bars represent standard deviations from 3 replicate experiments. […]
# FIG. 21. […] OPCs were plated in differentiation medium (2 ng/ml PDGF) and treated with various concentrations of compounds for 6 days. Cells were fixed and immunostained for MBP.
# A large-scale small molecule screen was conducted to identify small molecules that promote the differentiation of oligodendrocyte precursor cells (OPCs) to a mature myelinating fate. High content imaging was used to detect in-well differentiation of rat optic nerve derived OPCs. Rat optic nerve derived OPCs were expanded en masse in OPC media containing 30 ng/mL PDGFαα. To screen for small molecule inducers of OPC differentiation, OPCs (cultured for fewer than 15 passages) were plated in poly-D-lysine coated 384 well culture plates in OPC Media containing 2 ng/mL PDGFαα and immediately treated with compounds at a final concentration of 6 μM (0.6% DMSO). Compound treated cells were incubated at 37° C., 5% CO2 for 6 days. At the end of 6 days, cells were fixed in 4% paraformaldehyde and subjected to immunofluorescence analysis. Anti-Myelin Basic Protein monoclonal antibody (a.a. 129-138, clone 1 monoclonal antibody, Millipore) (1:1000 dilution) in blocking buffere solution (3% BSA, 0.3% Triton X-100 in PBS) was added to fixed and washed cells and incubated at 4° C. overnight.
# OPCs [3] = test: qRT-PCR of MBP and MOG expression in compound treated OPCs; type: cell-based, rat; conditions: EC90 concentrations, 6 days
# Source text: FIG. 2A-C. […] (A) Western blot analysis of OPCs treated with compounds at EC90 concentrations for 6 days. Total protein was isolated from cell pellets and probed for myelin basic protein (MBP) and myelin oligodendrocyte glycoprotein (MOG) using specific antibodies. (B-C) Quantitative RT-PCR (qRT-PCR) analysis of OPCs treated with compounds at EC90 concentrations for 6 days. Total RNA was isolated from cell pellets and reverse transcribed. MBP and MOG expression was quantified using specific probes and Taqman-based qRT-PCR. Expression was normalized to the internal controls β-actin and GAPDH. Fold change in gene expression over DMSO treated control cells is plotted for MBP (B) and MOG (C).
# OPCs [4] = test: Western blot of MBP and MOG in compound treated OPCs; type: cell-based, rat; conditions: OPCs treated 6 days
# Source text: FIG. 2A-C. Neurotransmitter receptor modulating agents induce the differentiation of OPCs to a myelinating oligodendrocyte cell fate. (A) Western blot analysis of OPCs treated with compounds at EC90 concentrations for 6 days. Total protein was isolated from cell pellets and probed for myelin basic protein (MBP) and myelin oligodendrocyte glycoprotein (MOG) using specific antibodies. (B-C) Quantitative RT-PCR (qRT-PCR) analysis of OPCs treated with compounds at EC90 concentrations for 6 days. Total RNA was isolated from cell pellets and reverse transcribed. MBP and MOG expression was quantified using specific probes and Taqman-based qRT-PCR. Expression was normalized to the internal controls β-actin and GAPDH. Fold change in gene expression over DMSO treated control cells is plotted for MBP (B) and MOG (C).
# FIG. 13. […] After 6 days in culture, cells were analyzed for MBP and MOG expression by Western blot.
# OPCs [5] = test: Immunofluorescence analysis of mature oligodendrocyte markers (MBP, MOG, CNP, GalC, O1, O4); type: cell-based, rat; conditions: OPCs treated 6 days
# Source text: FIG. 3. Immunofluorescence analysis of compound treated OPCs using mature oligodendrocyte specific markers. Immunofluorescence staining using specific antibodies for MBP, MOG, and 2′,3′-cyclic nucleotide 3′ phosphodiesterase (CNP). Nuclei were identified using DAPI.
# FIG. 4. Immunofluorescence analysis of compound treated OPCs using mature oligodendrocyte specific markers. Immunofluorescence staining using specific antibodies for galactocereberoside (GalC), oligodendrocyte marker O1 (O1) and oligodendrocyte marker O4 (O4). Nuclei were identified using DAPI.
# FIG. 14. Compound treatment induces the differentiation of OPCs to mature oligodendrocytes. […] Cells were fixed and immunostained for MBP, MOG, CNP, GalC, O1, or O4.
# Immunofluorescence was also used to confirm that the hits were able to induce oligodendrocyte maturation.
# muscarinic receptor = test: Carbachol co-treatment in compound induced OPC differentiation (MBP staining); type: cell-based, rat; conditions: compounds at EC90 (benztropine 2.3 uM), serial dilutions of carbachol, 6 days
# Protocol: (§1) Following 6 days of treatment, cells were fixed and stained for MBP. Plates were imaged using the OPERA high content screening system and MBP staining was quantified as described. […] OPCs were plated in 384-well plates at 5000 cells per well in media containing basal PDGF-αα. Cells were equilibrated with Ca^2+ sensitive Fluo-3AM® dye in HBSS for 30 min. […] Ca^2+ influx was immediately measured using the FLIPR TETRA® system.
# OPCs express mAChRs, predominantly subtypes M1, M3, and M5 (F. Ragheb et al., J Neurochem, 77, 1396 (2001)). […] Activation of M1 and M3 mAChRs is coupled to downstream signal transduction events through phospholipase C, which results in increased intracellular calcium concentrations (F. Ragheb et al., J Neurochem, 77, 1396 (2001)) (FIG. 23C). M2 and M4 mAChR activation inhibits adenylatecyclase, leading to decreased intracellular cAMP levels (C. C. Felder, FASEB J, 9, 619 (1995); M. Lopez-Ilasaca et al., Science, 275, 394 (1997)). […] Acetylcholine is a known regulator of OPC proliferation and, as such, muscarinic receptor subtypes represent a reasonable class of therapeutic targets for the modulation of OPC proliferation and differentiation (F. De Angelis et al., Dev Neurobiol, (2011)).
# [6] = test system: M1/M3 muscarinic receptors
# Protocol: as §1
# (A-C) OPCs were plated in differentiation media for 12 hours. […] (C) Atropine, a muscarinic antagonist, serves as a positive control. (D) OPCs were plated in differentiation medium for 12 hours. A cAMP-HTRF assay was performed using the cAMP dynamic 2 kit. […] IBMX was added as a cAMP stabilizer, and forskolin was a positive control.
Structure (SMILES),"mean maximal clinical EAE score in relapse, day 25 (PLP induced EAE mice; SJL mice, scale 0-5, compounds 10 mg/kg i.p. daily from day 10, mycophenolate mofetil 20 mg/kg from day 14, mean ± SEM)","clinical severity versus vehicle, dosing after disease onset (therapeutic mode) (PLP induced EAE mice; compounds 10 mg/kg i.p. daily from first EAE symptoms, mycophenolate 20 mg/kg from day 14)","T-cell activation (CD69, CD25) [1]",T-cell proliferation (CFSE) [1],"percentage of resulting MBP-positive cells ([2]; OPC sample cultured with agent at maximum potency, listed as GBT12935)",induction of OPC differentiation (MBP staining) [2],induction of MBP expression (qRT-PCR) over DMSO (OPCs [3]),induction of MOG expression (qRT-PCR) over DMSO (OPCs [3]),MBP and MOG expression (Western blot) (OPCs [4]),"markers of mature myelinating oligodendrocytes (MBP, MOG, CNP, GalC, O1, O4) by immunofluorescence (OPCs [5])",effect of carbachol on compound induced OPC differentiation (muscarinic receptor),effect on carbachol induced Ca2+ influx [6]
"COc1c(C)c2c(c(O)c1C/C=C(\C)CCC(=O)OCCN1CCOCC1)C(=O)OC2 [Mycophenolate mofetil, mycophenolate mofetil]",0.7±0.3,decrease in severity of the relapse,suppresses the activation and proliferation of T-cells,suppresses T-cell proliferation,,,,,,,,
c1ccc(CCCN2CCN(CCOC(c3ccccc3)c3ccccc3)CC2)cc1 [GBR12935],,,,,over 15%,promote OPC differentiation,two-fold,two-fold,positive,confirmed the presence of multiple markers of mature myelinating oligodendrocytes,did not inhibit; also recorded: no effect,no effect
OCc1cc(C(O)CNCCCCCCOCCCCc2ccccc2)ccc1O (stereo not shown) [salmeterol],,,,,,promote OPC differentiation,two-fold,two-fold,positive,confirmed the presence of multiple markers of mature myelinating oligodendrocytes,did not inhibit; also recorded: no effect,no effect
CN1CCC[C@@H]1CCO[C@](C)(c1ccccc1)c1ccc(Cl)cc1 [clemastine],,,,,,promote OPC differentiation,two-fold,two-fold,positive,confirmed the presence of multiple markers of mature myelinating oligodendrocytes,inhibited; also recorded: dose dependent inhibition,
